System: aging Wildtype (WT) mice
Assay: Aging wildtype mice, 40 weeks weekly prednisone
Assay type: in vivo, mouse
Experimental: Dosing of metabolic and endocrine biomarkers. Glycogen was quantitated using the Glycogen Assay Kit (#ab65620; Abcam, Cambridge, Mass.) from approximately 25 mg frozen-pulverized whole tissue, following manufacturer's instructions and internal standards for calculating μg/mg values. For measurement of whole-tissue ATP/NAD^+ levels, approximately 25 mg frozen-pulverized tissue was extracted in 10% perchloric acid and neutralized in 0.75 M K2CO3, as previously described (Ramsey et al., 2009). NAD+ and ATP were measured by high-pressure liquid chromatography (HPLC) with Shimadzu LC-20A pump (Shimadzu Scientific Instr Inc, Addison, Ill.) and UV-VIS detector, using a Supelco LC-18-T column (15 cm×[…]; #58970-U; Millipore-Sigma, St Louis, Mo.). […] ATP and NAD^+ eluted as sharp peaks at 3 and 14 minutes, respectively, and were normalized to tissue weight of frozen liver tissue for calculating pmol/mg values. Corticosterone was measured in mouse serum and cortisol was measured in human serum using dedicated ELISA kits (#ADI-900-097, Enzo Life Science, Farmingdale, N.Y.; #K7430-100, BioVision, Milpitas, Calif.) according to manufacturer's instructions and internal standards to calculate ng/ml values. Insulin levels were quantitated in mouse and human serum with species-specific ELISA kits (#10-1247-01 (mouse-specific); #10-1113-01 (human-specific); Mercodia, Uppsala, Sweden), following manufacturer's instructions and internal standards to calculate ng/ml values. Free fatty acids were quantitated using Enzychrom Free Fatty Acid Assay kit (#EFFA-100; BioAssay Systems, Hayward, Calif.), following kit's instructions and standards to calculate μM (serum) and nmol/mg (tissue) values. For ketone body dosing, beta-hydroxybutyrate was quantitated using a dedicated colorimetric assay kit (#700190; Cayman Chemical, Ann Arbor, Mich.), following manufacturer's instructions and standards to calculate μM (serum) and nmol/mg (tissue) values. […] Colorimetric reactions were quantitated using a Synergy HTX multi-mode plate reader (BioTek®, Winooski, Vt.) and averaging four reads/sample at appropriate wavelengths. […]
Histology. […] Myofiber/adipocyte CSA quantitation was conducted on 400 myofibers/adipocytes per tissue per mouse. […] Area quantitation was performed by means of ImageJ (Schneider et al., 2012). Sample processing, imaging and CSA quantitation were conducted blinded to treatment groups.
Muscle function, whole-body plethysmography, echocardiography. Forelimb grip strength was monitored using a meter (Cat #1027SM; Columbus Instruments, Columbus, Ohio) blinded to treatment groups. […]

[1] = aging WT mice, weekly prednisone, 40 weeks

C[C@]12C=CC(=O)C=C1CC[C@@H]1[C@@H]2C(=O)C[C@@]2(C)[C@H]1CC[C@]2(O)C(=O)CO [prednisone, Prednisone]
grip strength, tetanic and specific force, and muscle mass (myofiber CSA) (aged WT mice, weekly prednisone, 40 weeks): improved | levels of ATP, NAD+ and glycogen in muscle and heart tissues (aging WT mice, weekly prednisone 1 mg/kg i.p., 40 weeks from the age of 6 weeks): increased | parameters of cardiac contractile function (echocardiography) [1]: improved | parameters of respiratory function (whole-body plethysmography) [1]: improved

Reference: patent US20220062299A1, “USE OF GLUCOCORTICOID STEROIDS IN PREVENTING AND TREATING CONDITIONS OF MUSCLE WASTING, AGING AND METABOLIC DISORDER” (NORTHWESTERN UNIVERSITY, priority 2018, published 2022)
